This test concerns K^Buty of H3 and H4 in HeLa cells. The experiment in a line: K^Buty level in histones of HeLa cells treated with HDAC inhibitors (immunoblot). Format: cell-based. The conditions noted are these: anti-K^Buty immunoblot. The method, then: FIGS. 17A-C. […] Four peptide libraries were spotted on nitrocellulose membrane with four dilutions and were used to assay the antibody's specificity. The 14-residue randomized peptide libraries have a fixed residue at 8th position, K^Ac in lane 1, K^Prop in lane 2, K^Buty in lane 3, and K in lane 4. Dot-blot analysis was used to test the specificity of the antibody. To perform the dot-blot analysis, 2 ul of peptide diluted in distilled water to different concentrations was spotted on a strip of nitrocellulose membrane and allowed to air dry. The membrane was then assayed in a manner similar to that used in the immunoblot analysis. […] Lane 3 and 4 are WB controls using anti-H3 and anti-H4 antibodies, respectively. For antibody competition assay, 200 ng of anti-K^Buty antibody was incubated with 1 ug of a peptide library with a fixed non-modified lysine (lane 1) or with a fixed butyryllysine (lane 2), respectively. After incubation for 3 hour at room temperature, the antibody was subjected to immunoblot against core histones derived from Hela cells. Histone H3 and H4 antibodies were used to indicate the positions of H3 or H4 (lane 3 and lane 4). […] The core histones were prepared from HeLa cells treated with nothing, or trichostatin A (TSA), or sodium butyrate (NaBu), as indicated. […]

Turning to `CC(/C=C/C(=O)NO)=C\[C@@H](C)C(=O)c1ccc(N(C)C)cc1` [trichostatin A], the “K^Buty level” value (10 uM, 6 Hours) is recorded as “dramatically induced”.

As for `CCCC(=O)[O-].[Na+]` [sodium butyrate], the “K^Buty level” value (20 mM for 6 hours) was “dramatically induced”.

Values taken from US20080241862A1, “PROPIONYL AND BUTYRYL LYSINE MODIFICATIONS IN PROTEINS” (priority 2007, published 2008).
